In PubChem BioAssay AID328 (DTP/NCI, 2004) one finds T/C data, which are given here for 18 compounds.

The assay concerns BDF1 mice, P388 leukemia ip, median survival T/C. Description: NCI In Vivo Anticancer Drug Screen. Data for tumor model P388 Leukemia (intraperitoneal) in B6D2F1 (BDF1) mice. The settings on record: endpoint: median survival time, higher = longer survival. The essentials: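 Mice carrying the transplantable tumour receive compound or vehicle. Survival is followed in each arm, and the treated measure is divided by the vehicle measure.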

[1] abbreviates: dose: 6.25 mg/kg/injection, schedule: Q01DX009 (ip), vehicle: saline with Tween-80.
[2] abbreviates: dose: 12.5 mg/kg/injection, schedule: Q01DX009 (ip), vehicle: saline with Tween-80.
Setting [3] is: dose: 25.0 mg/kg/injection, schedule: Q01DX009 (ip), vehicle: saline with Tween-80.
The mark [4] stands for this setting: dose: 50.0 mg/kg/injection, schedule: Q01DX009 (ip), vehicle: saline with Tween-80.
Where [5] appears, read: dose: 100.0 mg/kg/injection, schedule: Q01DX009 (ip), vehicle: saline with Tween-80.
Setting [6] is: dose: 100.0 mg/kg/injection, schedule: Q04DX003 (ip), vehicle: saline with Tween-80.
The mark [7] stands for this setting: dose: 200.0 mg/kg/injection, schedule: Q01DX009 (ip), vehicle: saline with Tween-80.
Where [8] appears, read: dose: 200.0 mg/kg/injection, schedule: Q04DX003 (ip), vehicle: saline with Tween-80.
Where [9] appears, read: dose: 400.0 mg/kg/injection, schedule: Q01DX009 (ip), vehicle: saline with Tween-80.
Setting [10] is: dose: 400.0 mg/kg/injection, schedule: Q04DX003 (ip), vehicle: saline with Tween-80.

The structures appear in SMILES notation. Where “and” joins values, the source holds several entries; their conditions need not be identical. Equal values may be shown once. Toxic doses and inconclusive results are not listed.

For `O=C(Nc1ccc(NC2=NCCN2)cc1)c1cccc(C(=O)Nc2ccc(NC3=NCCN3)cc2)c1`, the T/C reads like this: (dose: 5.0 mg/kg/injection, schedule: Q01DX009 (ip), vehicle: saline with Tween-80) 116 % of control; (dose: 5.0 mg/kg/injection, schedule: Q04DX003 (ip), vehicle: saline with Tween-80) 100 % of control; (dose: 10.0 mg/kg/injection, schedule: Q04DX003 (ip), vehicle: saline with Tween-80) 100 % of control; (dose: 13.0 mg/kg/injection, schedule: Q01DX009 (ip), vehicle: saline with Tween-80) 150 % of control; (dose: 20.0 mg/kg/injection, schedule: Q04DX003 (ip), vehicle: saline with Tween-80) 122 % of control; (dose: 30.0 mg/kg/injection, schedule: Q01DX009 (ip), vehicle: saline with Tween-80) 122 % of control.
In the case of `CCCC[N+](CC)(CC)CCCNC1=CC(=O)C(NCCC[N+](CC)(CC)CCCC)=CC1=O`, the T/C is 105 % of control (dose: 0.39 mg/kg/injection, schedule: Q04DX002 (ip), vehicle: saline) and 105 % of control (dose: 0.78 mg/kg/injection, schedule: Q04DX002 (ip), vehicle: saline).
For the compound `CC1(C(Cl)(Cl)Cl)C=CC(=O)C=C1`, the T/C reads like this: under setting [1], 110 % of control; under setting [2], 115 % of control; under setting [3], 98 % of control; under setting [4], 107 % of control.
As to `O=C(Nc1ccccc1O)c1ccccc1`, the T/C (dose: 100.0 mg/kg/injection, schedule: Q04DX003 (ip), vehicle: saline sonified) is 90 % of control; the T/C (dose: 200.0 mg/kg/injection, schedule: Q04DX003 (ip), vehicle: saline sonified) is 100 % of control; the T/C (dose: 400.0 mg/kg/injection, schedule: Q04DX003 (ip), vehicle: saline sonified) is 90 % of control.
As to `OC/C(=N/Nc1ccc2ccccc2n1)c1ccccc1`, the T/C runs as follows: under setting [4], 114 % of control; under setting [5], 117 % of control; under setting [6], 94 % of control; under setting [7], 115 % of control; under setting [8], 102 % of control; under setting [9], 88 % of control. Under setting [10], the T/C was 101 % of control.
As for `COC(=O)C(Cc1ccccc1)NS(=O)(=O)c1ccc(C)cc1` (stereo not given), the T/C is, setting by setting: (dose: 12.5 mg/kg/injection, schedule: Q01DX005 (ip), vehicle: saline with Tween-80) 92 % of control; (dose: 25.0 mg/kg/injection, schedule: Q01DX005 (ip), vehicle: saline with Tween-80) 90 % of control; (dose: 50.0 mg/kg/injection, schedule: Q01DX005 (ip), vehicle: saline with Tween-80) 87 % of control and 92 % of control; (dose: 200.0 mg/kg/injection, schedule: Q01DX005 (ip), vehicle: saline with Tween-80) 111 % of control.
For `Cc1c(C/C(=N/O)C(=O)O)[nH]c(=S)[nH]c1=O`, the T/C reads like this: under setting [6], 100 % of control; under setting [8], 87 % of control; under setting [10], 100 % of control.
As for `O=[n+]1c2ccccc2n([O-])c2ccccc21.[Cl][Ni][Cl]`, the T/C by setting is: (dose: 6.25 mg/kg/injection, schedule: Q04DX003 (ip), vehicle: saline with Tween-80) 105 % of control; (dose: 12.5 mg/kg/injection, schedule: Q04DX003 (ip), vehicle: saline with Tween-80) 112 % of control.
With `Cc1cc(O)c2c(c1)C(c1ccc3cc4c(c(O)c3c1O)C(=O)CC(C)(O)C4)c1cccc(O)c1C2=O` (stereo not given), the T/C (dose: 0.09 mg/kg/injection, schedule: Q01DX009 (ip), vehicle: olive oil, sesame oil, peanut oil) was 102 % of control; the T/C (dose: 0.19 mg/kg/injection, schedule: Q01DX009 (ip), vehicle: olive oil, sesame oil, peanut oil) was 100 % of control; the T/C (dose: 0.39 mg/kg/injection, schedule: Q01DX009 (ip), vehicle: olive oil, sesame oil, peanut oil) was 102 % of control; the T/C (dose: 0.78 mg/kg/injection, schedule: Q01DX009 (ip), vehicle: olive oil, sesame oil, peanut oil) was 106 % of control.
For the compound `FC(F)(F)c1nc2nc(Cl)c(Cl)nc2[nH]1`, the T/C (dose: 10.0 mg/kg/injection, schedule: Q01DX009 (ip), vehicle: other) was 100 % of control; the T/C (dose: 20.0 mg/kg/injection, schedule: Q01DX009 (ip), vehicle: other) is 109 % of control; the T/C (dose: 26.6 mg/kg/injection, schedule: Q01DX009 (ip), vehicle: other) is 120 % of control; the T/C (dose: 44.0 mg/kg/injection, schedule: Q04DX003 (ip), vehicle: other) was 118 % of control; the T/C (dose: 100.0 mg/kg/injection, schedule: Q04DX003 (ip), vehicle: other) was 150 % of control.
Take `Nc1nc(N)c2cc(S(=O)(=O)c3cccc(C(F)(F)F)c3)ccc2n1`: the T/C is, setting by setting: under setting [4], 95 % of control; under setting [5], 111 % of control; under setting [7], 120 % of control.
`CCOC(=O)c1ccc(NS(=O)(=O)c2ccc(C)cc2)cc1`: the T/C by setting is: under setting [5], 106 % of control; under setting [7], 106 % of control; under setting [9], 88 % of control.
Turning to `CCOC(=O)CN1C=C(C(=O)c2cc3ccccc3[nH]2)CCC1`, the T/C reads like this: (dose: 0.06 mg/kg/injection, schedule: Q01DX009 (ip), vehicle: saline) 105 % of control; (dose: 0.12 mg/kg/injection, schedule: Q01DX009 (ip), vehicle: saline) 105 % of control; (dose: 0.25 mg/kg/injection, schedule: Q01DX009 (ip), vehicle: saline) 105 % of control; (dose: 0.5 mg/kg/injection, schedule: Q01DX009 (ip), vehicle: saline) 100 % of control; (dose: 1.0 mg/kg/injection, schedule: Q01DX009 (ip), vehicle: saline) 105 % of control; (dose: 2.0 mg/kg/injection, schedule: Q01DX009 (ip), vehicle: saline) 110 % of control. For the same compound, the T/C reads like this: (dose: 4.0 mg/kg/injection, schedule: Q01DX009 (ip), vehicle: saline) 99 % of control; (dose: 8.0 mg/kg/injection, schedule: Q01DX009 (ip), vehicle: saline) 98 % of control; (dose: 16.0 mg/kg/injection, schedule: Q01DX009 (ip), vehicle: saline) 93 % of control; (dose: 32.0 mg/kg/injection, schedule: Q01DX009 (ip), vehicle: saline) 98 % of control.
Turning to `O=C(C(Br)C(Br)c1ccccc1)C(Br)C(Br)c1ccccc1` (stereo not given), the T/C is 104 % of control under setting [5], 104 % of control under setting [7] and 100 % of control under setting [9].
For the compound `Cc1cc(O)c(C(c2ccc(N(C)C)cc2Cl)c2c(O)cc(C)[nH]c2=O)c(=O)[nH]1`, the T/C under setting [4] is 99 % of control and the T/C under setting [5] is 115 % of control.
As to `CC(=O)SCCNCCNC1CC2CCC1C2` (stereo not given), the T/C is, setting by setting: (dose: 5.75 mg/kg/injection, schedule: Q01DX009 (ip), vehicle: saline) 104 % of control; (dose: 11.5 mg/kg/injection, schedule: Q01DX009 (ip), vehicle: saline) 104 % of control.
For `CNc1ncnc2nc(OC)[nH]c12`, the T/C (dose: 0.78 mg/kg/injection, schedule: Q01DX009 (ip), vehicle: saline with Tween-80) was 95 % of control; the T/C (dose: 1.56 mg/kg/injection, schedule: Q01DX009 (ip), vehicle: saline with Tween-80) is 100 % of control; the T/C (dose: 3.13 mg/kg/injection, schedule: Q01DX009 (ip), vehicle: saline with Tween-80) was 98 % of control; the T/C under setting [1] was 101 % of control.
As for `C[CH2][Ge]([CH2]C)[CH2]/C=C\[CH2][Ge]([CH2]C)[CH2]C`, the T/C is 100 % of control under setting [2], 89 % of control under setting [3] and 100 % of control under setting [4].
